Assay results from US20240245694A1, “Tricyclic Compounds and their Uses” (Novartis AG, priority 2022, published 2024).
pIC50: −log10 of the molar value.

How the values were obtained:
[1] = biological target: WRN helicase (core helicase motif aa N517-P1238) (Homo sapiens (Human), UniProt Q14191); assay: WRN ATPase assay (ADP-Glo), DNA dependent ATP hydrolysis; type: biochemical; details: 3 hours pre-incubation, 300 micromolar ATP, FLAP26 ssDNA; geometric means of at least 2 determinations
Excerpt: An ATPase assay was set up to measure the DNA dependent ATP hydrolysis activity of WRN helicase. This assay was used also to assess the inhibition properties of compounds of the invention on DNA dependent WRN ATPase activity.
The core helicase motif of the WRN protein (aa N517-P1238) was produced for this assay (protein production as described above). A 45 oligonucleotide sequence called “FLAP26” as described by Brosh et al., 2009, DOI: 10.1074/jbc.M111446200 ([…]; SEQ ID NO: 2) was purchased from IDT (Integrated DNA Technologies, Leuven, Belgium) and used as single strand DNA substrate. The ADP-Glo assay kit (Promega, Madison, WI) allowing the quantification of ADP produced in ATP hydrolysis reactions was used for setting up this assay. Time course experiments were first performed in order to determine the best enzymatic assay conditions (including buffer conditions, reaction time and concentrations of protein, ATP and DNA substrates). A typical reaction consists of 10 nM WRN protein, 0.2 nM FLAP26, and 300 micromolar ATP in the following assay buffer: 30 mM Tris pH7.5, 2 mM MgCl2, 0.02% BSA, 50 mM NaCl, 0.1% pluronic F127 prepared in DNAse free water.
To evaluate the inhibition properties of compounds of the invention, serial dilutions were prepared in DMSO (10 half log dilutions from a 10 mM DMSO solution). 50 nanoliters of each concentration was pre-incubated for 3 hours in a 384 small volume assay plate (Greiner #784075) with 2.5 microliters of a 20 nM WRN helicase protein in assay buffer with 600 micromolar ATP. Control wells were included with a “high control” (no inhibition), containing DMSO with no test compound, and “low controls” (maximal inhibition), containing buffer without protein. The reaction was started by addition of 2.5 microliters of FLAP26 at 0.4 nM and incubated for 30 minutes at room temperature. The reaction was stopped with the addition of 5 microliters of the first ADP-Glo reagent and incubated for one hour to remove the excess amount of ATP. Afterwards, 10 microliters of ATP detection reagent was added and incubated for an additional hour before reading. Luminescence output was recorded using Tecan 1000 reader, with 5 minutes delay before reading. Each concentration of compound was tested in duplicates in the assay plate.
Data analysis was carried out using an in-house developed software (Novartis Helios software application, Novartis Institutes for BioMedical Research, unpublished) using the methods described by Formenko et al., 2006, DOI: 10.1016/j.cmpb.2006.01.008. Following normalization of activity values for the wells to % inhibition (% inhibition=[(high control-sample)/(high control-low control)]×100), IC50 fitting was carried out from the duplicate determinations present on each plate according to [4]. Data analysis can also be carried out using commercially available software designed to derive IC50 values using 4-parameter fits (e.g. GraphPad Prism, XL fit). The reported IC50 values are the geometrical means of at least 2 independent replicates.

SW48 cells = assay: Proliferation assay SW48 (CellTiterGlo, 96 hours); type: cell-based; details: Homo sapiens
Excerpt: (§1) The colon carcinoma cell lines SW48 (RRID: CVCL_1724), HCT 116 (RRID: CVCL_0291) and SNU-407 (RRID: CVCL_5058) were obtained from ATCC. The WRN-knockdown insensitive colon carcinoma cell line DLD-1 (RRID: CVCL_0248) was obtained from the Korean Cell Line Bank (KCLB), and used to generate a derivative in which the endogenous WRN gene copies were knocked out by CRISPR-mediated editing using standard CRISPR methods. The resulting cell line, DLD1-WRN-KO, was used to assess potential off-target compound effects.
(§2) SW48, SNU-407 and DLD1-WRN-KO cells were cultured in growth medium composed of RPMI-1640 (Amimed Cat #1-41F22-1), 2 mM L-Glutamine (Amimed Cat #5-10K50), 10 mM HEPES (Gibco Cat #15630-056), 1 mM sodium pyruvate (Amimed Cat #5-60F00-H), 1× Penicillin-Streptomycin (Amimed Cat #4-01F00-H) and 10% fetal calf serum (Amimed Cat #2-01F30-G, Lot #LB11566P). HCT 116 cells were cultured in growth medium composed of McCoys 5A (Amimed catalog #1-18F01-1), 2 mM L-Glutamine (Amimed Cat #5-10K50), 1× Penicillin-Streptomycin (Amimed Cat #4-01F00-H) and 10% fetal calf serum (Amimed Cat #2-01F30-G, Lot #LB11566P). All cells were maintained at 37° C. in a humidified 5% CO2 incubator.
(§3) Following filtration through a Steriflip-NY 20 μm filter (Millipore Cat #SCNY00020), trypsinized cells were seeded in 100 microliters growth medium at 2′000 (SW48) or 1′500 (SNU-407, DLD1-WRN-KO, HCT 116) cells/well into white, clear-bottom 96-well plates (Costar Cat #3903). Three replicate plates were prepared for each compound treatment condition. In addition, one plate (termed “day 0”) was prepared to quantify the number of viable cells at the time of compound addition. Following overnight incubation at 37° C. in a humidified 5% CO2 atmosphere, eight 3-fold serial dilutions of a given compound stock (obtained at a concentration of 10 mM in DMSO and stored at 4° C.) were dispensed directly into each of the triplicate assay plates using a HP 300D non-contact Digital Dispenser (TECAN). The final concentration of DMSO was normalized to 0.1% in all wells. 96 hours after compound addition, cellular ATP levels as a surrogate for cell viability was assessed following addition of 50 microliters CellTiterGlo (Promega Cat #G7573) reagent and luminescence quantification on a MPLEX multi-mode plate-reader (TECAN) following a 10 minute incubation at room temperature. The number of viable cells in the “day 0” plate were quantified identically on the day of compound addition.
(§4) For data analysis, the assay background signal that was determined in wells containing medium, but no cells, was subtracted from all other data points prior to further calculations. The extent of growth inhibition and potential cell kill was assessed by comparing the ATP levels (measured using CellTiterGlo, Promega) in compound-treated cells with those present at the time of compound addition. To this end, the following conditional concept was programmatically applied in HELIOS, an in-house software applying a multi-step decision tree to arrive at optimal concentration response curve fits (Gubler et al, SLAS DOI: 10.1177/2472555217752140) to calculate % growth (% G) for each compound-treated well: % G=(T−V0)/V0))*100 when T<V0, and % G=(T−V0)/(V−V0)))*100 when T>V0, where V0 is the viability level at time of compound addition, while V and T represent vehicle-control and compound-treated viability levels, respectively, at the end of the compound incubation. 100%, 0% and −100% signify absence of growth inhibition, growth stasis, and complete cell kill, respectively. Compound concentrations leading to half-maximal growth inhibition (G150) and residual cell viability at the highest tested compound concentration (Data (cmax), expressed in percent) were routinely calculated. Data analysis can also be carried out using commercially available software designed to derive IC50 values using 4-parameter fits (e.g. GraphPad Prism, XL fit). […]

DLD1-WRN-KO cells = assay: Proliferation assay DLD1-WRN-KO (CellTiterGlo, 96 hours), off-target effects; type: cell-based; details: Homo sapiens
Excerpt: as §1, §2, §3, §4

Sequence of WRN helicase (core helicase motif aa N517-P1238) (Q14191 517-1238): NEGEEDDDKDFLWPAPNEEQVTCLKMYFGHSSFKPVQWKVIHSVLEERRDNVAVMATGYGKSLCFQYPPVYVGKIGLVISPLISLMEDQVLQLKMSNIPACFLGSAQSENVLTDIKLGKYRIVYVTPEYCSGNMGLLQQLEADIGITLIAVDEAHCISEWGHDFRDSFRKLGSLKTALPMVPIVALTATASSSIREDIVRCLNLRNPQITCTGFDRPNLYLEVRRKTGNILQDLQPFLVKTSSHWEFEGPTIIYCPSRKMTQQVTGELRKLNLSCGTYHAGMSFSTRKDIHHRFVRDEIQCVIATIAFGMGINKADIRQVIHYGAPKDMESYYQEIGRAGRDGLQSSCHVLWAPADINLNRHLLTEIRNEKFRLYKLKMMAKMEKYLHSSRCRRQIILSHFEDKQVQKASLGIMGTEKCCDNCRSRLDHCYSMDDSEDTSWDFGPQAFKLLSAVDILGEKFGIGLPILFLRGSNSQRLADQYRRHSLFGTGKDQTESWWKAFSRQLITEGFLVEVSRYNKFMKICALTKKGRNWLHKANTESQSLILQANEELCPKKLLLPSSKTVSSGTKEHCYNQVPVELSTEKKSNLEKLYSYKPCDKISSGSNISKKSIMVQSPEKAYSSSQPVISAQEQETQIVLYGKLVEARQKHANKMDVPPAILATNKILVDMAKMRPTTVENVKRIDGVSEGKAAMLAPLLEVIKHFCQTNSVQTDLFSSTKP

SMILES	pIC50 [1]	GI50 (SW48 cells)	GI50 (DLD1-WRN-KO cells)
CC(=O)N1CCN(c2c3n(c4nc(-c5ccccc5)nn4c2=O)C(C(=O)Nc2ccc(C(F)(F)F)cc2)CC3)CC1 (racemic) [Example 22, rac-6-(4-acetylpiperazin-1-yl)-5-oxo-2-phenyl-N-(4-(trifluoromethyl)phenyl)-5,7,8,9-tetrahydropyrrolo[1,2-c][1,2,4]triazolo[1,5-a]pyrimidine-9-carboxamide]	6.15	6 µM	> 10 µM
CC(=O)N1CCN(c2c3n(c4nc(C5=CCOCC5)nn4c2=O)C(C(=O)Nc2ccc(C(F)(F)F)cc2)CC3)CC1 (racemic) [Example 24, rac-6-(4-acetylpiperazin-1-yl)-2-(3,6-dihydro-2H-pyran-4-yl)-5-oxo-N-(4-(trifluoromethyl)phenyl)-5,7,8,9-tetrahydropyrrolo[1,2-c][1,2,4]triazolo[1,5-a]pyrimidine-9-carboxamide]	5.70	4 µM	> 10 µM
C[C@@H]1C[C@H](C(=O)Nc2ccc(C(F)(F)F)cc2Cl)n2c1c(N1CCN(C(=O)c3nccc(Cl)c3O)CC1)c(=O)n1nc(N3CCOCC3)nc21 [Example 1A, (7R,9R)-6-(4-(4-chloro-3-hydroxypicolinoyl)piperazin-1-yl)-N-(2-chloro-4-(trifluoromethyl)phenyl)-7-methyl-2-morpholino-5-oxo-5,7,8,9-tetrahydropyrrolo[1,2-c][1,2,4]triazolo[1,5-a]pyrimidine-9-carboxamide]	7.70	0.04 µM	> 10 µM
C[C@H]1C[C@@H](C(=O)Nc2ccc(C(F)(F)F)cc2Cl)n2c1c(N1CCN(C(=O)c3nccc(Cl)c3O)CC1)c(=O)n1nc(N3CCOCC3)nc21 [Example 1B, (7S,9S)-6-(4-(4-chloro-3-hydroxypicolinoyl)piperazin-1-yl)-N-(2-chloro-4-(trifluoromethyl)phenyl)-7-methyl-2-morpholino-5-oxo-5,7,8,9-tetrahydropyrrolo[1,2-c][1,2,4]triazolo[1,5-a]pyrimidine-9-carboxamide]	5.15	9 µM	> 10 µM
C[C@H]1C[C@H](C(=O)Nc2ccc(C(F)(F)F)cc2Cl)n2c1c(N1CCN(C(=O)c3nccc(Cl)c3O)CC1)c(=O)n1nc(N3CCOCC3)nc21 [Example 1C, (7S,9R)-6-(4-(4-chloro-3-hydroxypicolinoyl)piperazin-1-yl)-N-(2-chloro-4-(trifluoromethyl)phenyl)-7-methyl-2-morpholino-5-oxo-5,7,8,9-tetrahydropyrrolo[1,2-c][1,2,4]triazolo[1,5-a]pyrimidine-9-carboxamide]	7.40	0.5 µM	> 10 µM
C[C@@H]1C[C@@H](C(=O)Nc2ccc(C(F)(F)F)cc2Cl)n2c1c(N1CCN(C(=O)c3nccc(Cl)c3O)CC1)c(=O)n1nc(N3CCOCC3)nc21 [Example 1D, (7R,9S)-6-(4-(4-chloro-3-hydroxypicolinoyl)piperazin-1-yl)-N-(2-chloro-4-(trifluoromethyl)phenyl)-7-methyl-2-morpholino-5-oxo-5,7,8,9-tetrahydropyrrolo[1,2-c][1,2,4]triazolo[1,5-a]pyrimidine-9-carboxamide]	5.52	5 µM	> 10 µM
Cc1ncnc(C(=O)N2CCN(c3c4n(c5nc(N6CCOCC6)nn5c3=O)[C@@H](C(=O)Nc3ccc(C(F)(F)F)cc3Cl)C[C@H]4C)CC2)c1O [Example 2A, (7R,9R)—N-(2-chloro-4-(trifluoromethyl)phenyl)-6-(4-(5-hydroxy-6-methylpyrimidine-4-carbonyl)piperazin-1-yl)-7-methyl-2-morpholino-5-oxo-5,7,8,9-tetrahydropyrrolo[1,2-c][1,2,4]triazolo[1,5-a]pyrimidine-9-carboxamide]	7.70	0.04 µM	> 10 µM
Cc1cc(C(F)(F)F)ccc1NC(=O)[C@@H]1CCc2c(N3CCN(C(=O)c4nccc(Cl)c4O)CC3)c(=O)n3nc(C4=CCOCC4)nc3n21 [Example 19B, (S)-6-(4-(4-chloro-3-hydroxypicolinoyl)piperazin-1-yl)-2-(3,6-dihydro-2H-pyran-4-yl)-N-(2-methyl-4-(trifluoromethyl)phenyl)-5-oxo-5,7,8,9-tetrahydropyrrolo[1,2-c][1,2,4]triazolo[1,5-a]pyrimidine-9-carboxamide]	4.36	–	–
CC(=O)N1CCN(c2c3n(c4nc(-c5ccccc5)nn4c2=O)[C@H](C(=O)Nc2ccc(C(F)(F)F)cc2)CC3)CC1 [Example 22B, (S)-6-(4-acetylpiperazin-1-yl)-5-oxo-2-phenyl-N-(4-(trifluoromethyl)phenyl)-5,7,8,9-tetrahydropyrrolo[1,2-c][1,2,4]triazolo[1,5-a]pyrimidine-9-carboxamide]	< 4.00	–	–
Cc1ncnc(C(=O)N2CCN(c3c4n(c5nc(C6=CC(=O)OCC6)nn5c3=O)[C@@H](C(=O)Nc3ccc(C(F)(F)F)cc3Cl)C[C@H]4C)[C@H]3CC[C@@H]32)c1O [Example 25, (7R,9R)—N-(2-chloro-4-(trifluoromethyl)phenyl)-6-((1S,6S)-5-(5-hydroxy-6-methylpyrimidine-4-carbonyl)-2,5-diazabicyclo[4.2.0]octan-2-yl)-7-methyl-5-oxo-2-(6-oxo-3,6-dihydro-2H-pyran-4-yl)-5,7,8,9-tetrahydropyrrolo[1,2-c][1,2,4]triazolo[1,5-a]pyrimidine-9-carboxamide]	–	0.01 µM	> 10 µM
